Laboratory results published in US20260250325A1, “Antiviral Polypeptide Membrane Fusion Inhibitor, and Preparation Method and Application Thereof” (priority 2025, published 2026).
Where a SMILES comes first, the peptide text is derived from it. The star is where a group is joined. X1 = CC(C)CCCC(C)C1CCC2C3CC=C4CC(OC(=O)CCC(=O)*)CCC4(C)C3CCC12C

Experiments:
RSV A long virus strain = format: cell-based; settings: RSV A long virus strain, HEp-2 cells, plaque reduction, 1 day; read-out: IC50
Experimental: In this embodiment, an RSV-A long virus strain was used as an infection virus in the present disclosure. The anti-RSV activity of the synthesized polypeptide was determined through CPE detection.
The inhibitory activity of the compounds of Table 1-1-Table 1-5, positive polypeptide in Table 1-11, and positive control T-118 against the RSV-A long virus strain was detected.
(§1) Human Epithelial Pharyngeal Carcinoma Cells (HEp-2) were from the American Type Culture Collection (ATCC), with a catalog number CCL-23. The cells were cultured in a DMEM culture solution in which 10% fetal bovine serum, 1% sodium pyruvate, 1% nonessential amino acids, 2 mM glutamine, 100 U/mL penicillin, and 100 μg/mL streptomycin were added. The RSV A long virus strain was from the ATCC, with a catalog number VR-26.
This study used a plaque reduction experiment to detect the in-vitro activity of a test sample against the RSV A long virus strain. The test sample and a control compound were tested at 8 concentrations in duplicated wells. The HEp-2 cells were digested with trypsin and then diluted to a concentration of 300,000 cells per milliliter by using an experimental culture solution. The diluted cells were added to a 96-well cell test board, with 100 μL per well, corresponding to 30000 cells per well. The cells were cultured overnight in a 37° C. incubator with 5% CO2. On the second day, the test sample was diluted in an experimental culture medium at a fold ratio. The sample diluted at a fold ratio and an equal volume of virus (100 PFU per well) were well mixed and incubated at 37° C. in 5% CO2 for 1 h. Then, the culture solution in the 96-well cell test board was discarded, the sample virus mixed solution (200 μL) was added to the 96-well cell culture plate, and incubated at 37° C. in 5% CO2 for 2 hours. After 2 h, the sample virus mixed solution was discarded, and 200 μL of maintenance culture medium containing 0.8% CMC and the corresponding concentration of the test sample was added. A cell control (cells, without compound treatment or viral infection) and a viral control (cell infection virus, without compound treatment) were set. The cells were cultured for 1 day in the 37° C. incubator with 5% CO2. One day after viral infection, the culture medium was discarded, the cells were fixed with 4% paraformaldehyde, and then permeabilization was performed with 0.5% Triton X-100. After the plate was washed with DPBS, an RSV-specific antibody (RSV antibody, diluted 1:3000) was added and incubated at 37° C. for 1 h. Then, a secondary antibody (donkey anti-goat IgG, diluted 1:500) and incubated at 37° C. for 1 h. The secondary antibody was discarded, a TrueBlue solution was added, dyeing was performed for 10 min; and the plate was washed with running water and then air-dried, and the number of spots in each well was counted by using a microplate imaging counter. Raw data was used for calculating the antiviral activity of the samples.
(§2) The raw data for plaque counts and cell viability tests were used for analyzing the antiviral activity and cytotoxicity of the test samples, respectively. A calculation formula was shown as follows.
% inhibition rate=100−(sample value-cell control average value)/(virus control average value-cell control average value)×100%
(§3) Non-linear fitting analysis was performed on the inhibition rate of the sample by using GraphPad Prism (version 10), so as to calculate the IC50 and CC50 values for the sample.
IC50: in an in-vitro antiviral activity experiment, IC50 represented an inhibition ability indicator of a compound to be tested against the Hep-2 cells infected by the RSV A long virus strain.

[1] = Cytotoxicity test in HEp-2 cells (CCK8 cell viability); format: cell-based; settings: human; HEp-2 cells, CCK8, 1 day; read-out: CC50
Experimental: as §1
A cytotoxicity test and an antiviral test were performed in parallel. The HEp-2 cells were inoculated in the microplate at a density of 30,000 cells per well, and cultured overnight in the 37° C. incubator with 5% CO2. On the next day, the diluted test sample was added. The cell control (cells, without compound treatment) and a culture solution control (culture solution only, without cell or compound treatment) were set. A final concentration of DMSO in the culture solution was 0.5%. The cells were cultured for 1 day in the 37° C. incubator with 5% CO2. Cell viability was detected by using a cell viability detection kit CCK8.
as §2
cell survival rate=(sample value-culture medium control average value)/(cell control average value-culture medium control average value)×100
as §3
CC50: in the in-vitro antiviral activity experiment, CC50 was used to measure the toxicity of the compound to be tested to the Hep-2 cells. To be precise, when the compound to be tested was at a specific concentration, 50% of the Hep-2 cells was caused to die, and this concentration was defined as the CC50. A fitting formula was log (inhibitor) vs. response-Variable slope (four parameters).

Row | Compound | IC50 (RSV A long virus strain) [nM] | CC50 at 1 day [1] [nM]
1 | CC[C@H](C)[C@H](NC(=O)[C@H](CCCCN)NC(C)=O)C(=O)N[C@@H](CCC(=O)O)C(=O)N[C@@H](CCC(=O)O)C(=O)N[C@H](C(=O)N[C@@H](CC(N)=O)C(=O)N[C@@H](CCCCN)C(=O)N[C@@H](CCCCN)C(=O)N[C@H](C(=O)N[C@@H](CCC(=O)O)C(=O)N[C@@H](CCC(=O)O)C(=O)N[C@@H](CO)C(=O)N[C@@H](CC(C)C)C(=O)N[C@@H](CCCCN)C(=O)N[C@@H](CCCCN)C(=O)N[C@H](C(=O)N[C@@H](CCC(=O)O)C(=O)N[C@@H](CCC(=O)O)C(=O)N[C@@H](CO)C(=O)N[C@@H](CC(=O)O)C(=O)N[C@@H](CCCCN)C(=O)N[C@@H](CCCCN)C(=O)N[C@@H](CC(C)C)C(=O)N[C@@H](CCC(=O)O)C(=O)N[C@@H](CCC(=O)O)C(=O)N[C@H](C(=O)N[C@@H](CC(N)=O)C(=O)N[C@@H](CCCCN)C(=O)N[C@@H](CCCCN)C(=O)N[C@@H](CC(C)C)C(=O)N[C@@H](CCC(=O)O)C(=O)N[C@@H](C)C(=O)N[C@@H](C)C(=O)N[C@@H](C)C(=O)N[C@@H](CCCCN)C(=O)N[C@@H](CCCCNC(=O)CCC(=O)OC1CCC2(C)C(=CCC3C2CCC2(C)C(C(C)CCCC(C)C)CCC32)C1)C(N)=O)C(C)C)[C@@H](C)CC)[C@@H](C)CC)C(C)C (stereo partly shown) [Compound 10] (Ac-KIEEVNKKIEESLKKIEESDKKLEEVNKKLEAAAKK(X1)-NH2) | 18.1 | 1400
2 | CC[C@H](C)[C@H](NC(=O)[C@H](CO)NC(=O)[C@H](C)NC(=O)[C@H](CC(=O)O)NC(=O)[C@H](Cc1ccccc1)NC(C)=O)C(=O)N[C@@H](CCC(=O)O)C(=O)N[C@@H](CCC(=O)O)C(=O)N[C@H](C(=O)N[C@@H](CC(N)=O)C(=O)N[C@@H](CCCNC(=N)N)C(=O)N[C@@H](CCCNC(=N)N)C(=O)N[C@H](C(=O)N[C@@H](CCC(=O)O)C(=O)N[C@@H](CCC(=O)O)C(=O)N[C@@H](CO)C(=O)N[C@@H](CC(C)C)C(=O)N[C@@H](CCCNC(=N)N)C(=O)N[C@@H](CCCNC(=N)N)C(=O)N[C@H](C(=O)N[C@@H](CCC(=O)O)C(=O)N[C@@H](CCC(=O)O)C(=O)N[C@@H](CO)C(=O)N[C@@H](CC(=O)O)C(=O)N[C@@H](CCCNC(=N)N)C(=O)N[C@@H](CCCNC(=N)N)C(=O)N[C@@H](CC(C)C)C(=O)N[C@@H](CCC(=O)O)C(=O)N[C@H](C(=O)N[C@@H](CC(N)=O)C(=O)N[C@@H](CCCCN)C(=O)N[C@@H](CCCCN)C(=O)N[C@@H](C)C(=O)NCC(=O)N[C@@H](CO)C(=O)NCC(=O)N[C@@H](CO)C(=O)NCC(=O)N[C@@H](CCCCNC(=O)CCC(=O)OC1CCC2(C)C(=CCC3C2CCC2(C)C(C(C)CCCC(C)C)CCC32)C1)C(N)=O)C(C)C)[C@@H](C)CC)[C@@H](C)CC)C(C)C (stereo partly shown) [Compound 12] (Ac-FDASIEEVNRRIEESLRRIEESDRRLEVNKKAGSGSGK(X1)-NH2) | 28.4 | > 8000
3 | CC[C@H](C)[C@H](NC(=O)[C@H](CO)NC(=O)[C@H](C)NC(=O)[C@H](CC(=O)O)NC(=O)[C@H](Cc1ccccc1)NC(C)=O)C(=O)N[C@@H](CCC(=O)O)C(=O)N[C@@H](CCC(=O)O)C(=O)N[C@H](C(=O)N[C@@H](CC(N)=O)C(=O)N[C@@H](CCCNC(=N)N)C(=O)N[C@@H](CCCNC(=N)N)C(=O)N[C@H](C(=O)N[C@@H](CCC(=O)O)C(=O)N[C@@H](CCC(=O)O)C(=O)N[C@@H](CO)C(=O)N[C@@H](CC(C)C)C(=O)N[C@@H](CCCNC(=N)N)C(=O)N[C@@H](CCCNC(=N)N)C(=O)N[C@H](C(=O)N[C@@H](CCC(=O)O)C(=O)N[C@@H](CCC(=O)O)C(=O)N[C@@H](CO)C(=O)N[C@@H](CC(=O)O)C(=O)N[C@@H](CCCNC(=N)N)C(=O)N[C@@H](CCCNC(=N)N)C(=O)N[C@@H](CC(C)C)C(=O)N[C@@H](CCC(=O)O)C(=O)N[C@@H](C)C(=O)N[C@@H](C)C(=O)N[C@@H](C)C(=O)N[C@@H](CCCCN)C(=O)N[C@@H](CCCCNC(=O)CCC(=O)OC1CCC2(C)C(=CCC3C2CCC2(C)C(C(C)CCCC(C)C)CCC32)C1)C(N)=O)[C@@H](C)CC)[C@@H](C)CC)C(C)C (stereo partly shown) [Compound 19] (Ac-FDASIEEVNRRIEESLRRIEESDRRLEAAAKK(X1)-NH2) | 16.2 | 8300
4 | CC[C@H](C)[C@H](NC(=O)[C@H](CCCCN)NC(=O)[C@H](CCC(=O)O)NC(=O)[C@H](CC(C)C)NC(=O)[C@H](CO)NC(=O)[C@H](CCC(N)=O)NC(=O)[C@H](CC(N)=O)NC(=O)[C@@H](NC(=O)[C@H](CCCCN)NC(=O)[C@H](CCC(=O)O)NC(=O)[C@H](CC(N)=O)NC(=O)[C@@H](NC(=O)[C@H](CCC(N)=O)NC(=O)[C@H](CO)NC(=O)[C@H](C)NC(=O)[C@H](CC(=O)O)NC(=O)[C@H](Cc1ccccc1)NC(=O)[C@@H](NC(=O)[C@H](CC(C)C)NC(=O)[C@H](CCC(=O)O)NC(=O)[C@H](CC(=O)O)NC(=O)[C@H](Cc1ccc(O)cc1)NC(C)=O)C(C)C)C(C)C)[C@@H](C)CC)C(=O)N[C@@H](CCCNC(=N)N)C(=O)N[C@@H](CCCCN)C(=O)N[C@@H](CO)C(=O)N[C@@H](CC(=O)O)C(=O)N[C@@H](CCC(=O)O)C(=O)N[C@@H](CC(C)C)C(=O)N[C@@H](CC(C)C)C(=O)N[C@@H](Cc1c[nH]cn1)C(=O)N[C@@H](CC(N)=O)C(=O)N[C@H](C(N)=O)C(C)C [Compound 23] (Ac-YDELVFDASQVNEKINQSLEKIRKSDELLHNV-NH2) | 2330 | > 8000
5 | CC[C@H](C)[C@H](NC(=O)[C@H](Cc1ccccc1)NC(=O)[C@H](C)NC(=O)[C@H](CC(C)C)NC(=O)[C@H](CO)NC(=O)[C@H](CCC(N)=O)NC(=O)[C@H](CC(N)=O)NC(=O)[C@@H](NC(=O)[C@H](CCCCN)NC(=O)[C@H](CCC(=O)O)NC(=O)[C@H](CC(N)=O)NC(=O)[C@@H](NC(=O)[C@H](CCC(N)=O)NC(=O)[C@H](CCC(=O)O)NC(=O)[C@H](CC(=O)O)NC(=O)[C@H](CO)NC(C)=O)C(C)C)[C@@H](C)CC)C(=O)N[C@@H](CCCNC(=N)N)C(=O)N[C@@H](CCCNC(=N)N)C(=O)N[C@H](C(=O)N[C@@H](CCCNC(=N)N)C(=O)N[C@@H](CCCCN)C(=O)N[C@@H](CC(C)C)C(=O)N[C@@H](CC(C)C)C(=O)N[C@@H](Cc1c[nH]cn1)C(=O)N[C@@H](CC(N)=O)C(=O)N[C@@H](CCC(=O)O)C(=O)N[C@@H](C)C(=O)N[C@@H](C)C(=O)N[C@@H](C)C(=O)N[C@@H](CCCCN)C(=O)N[C@@H](CCCCNC(=O)CCC(=O)OC1CCC2(C)C(=CCC3C2CCC2(C)C(C(C)CCCC(C)C)CCC32)C1)C(N)=O)[C@@H](C)CC (stereo partly shown) [Compound 31] (Ac-SDEQVNEKINQSLAFIRRIRKLLHNEAAAKK(X1)-NH2) | 2220 | > 8000
